Reference: patent US12410124B2 (priority 2019, dated 2025)
Read-outs that look alike come from different tables or passages of the source.

What was measured:
[1] = biological target: acetylcholinesterase (AchE) (Homo sapiens, UniProt P22303); assay: biochemical
Description: The modified Ellman method was used to determine the inhibitory activity on acetylcholinesterase. The principle lies in that acetylthiocholine iodide is decomposed under the action of acetylcholinesterase (AchE) to generate thiocholine. The thiocholine is quickly reacted with DTNB as the colour-developing agent to generate a yellow substance with light absorption at 405 nm. To a 96-well microplate, 50 μl of enzyme reaction buffer, 125 μl of DTNB (3 mM), 25 μl of test sample or positive control drug, and 25 μl of AchE (0.2 U/ml) were successively added. After incubation at room temperature for 5 min, 25 μl of ATCI (15 mM) was added. After incubation at room temperature for 8 min, the absorbance value was determined at 405 nm with a microplate reader. A blank control group without enzyme (25 μl PBS instead of the sample to be tested) was also established.

[2] = test system: primary glial cells; assay: Inhibition of the NO release of primary glial cells induced by LPS; assay type: cell-based, rat; details: Rattus norvegicus, Glial cell, read-out: NO inhibition (%)
From the text: Lipopolysaccharide (LPS) is a main component of the cell wall of Gram-negative bacteria. It is a potent inflammatory factor that can directly activate gliocytes, and the activated gliocytes secrete a large amount of inflammation mediators such as tumor necrosis factor, interleukin, and nitric oxide, thus causing inflammatory reactions and oxidative stress reactions and eventually leading to neuronal denaturation and death. In recent years, the targeted injection of LPS into rat substantia nigra or striatum to induce neuroinflammation can successfully establish PD models, which can simulate most of the clinical manifestations and pathological features of PD, and are used for the study on the neuroinflammation mechanism associated with PD. LPS-induced primary glial cell PD inflammation model is suitable for the preliminary anti-neuroinflammation screening for neuroprotective agents. LPS is used to directly activate primary glial cells to simulate the pathogenesis mechanism of neuroinflammation, and the inhibitory activity of the target compounds on the inflammatory response of primary glial cells can be investigated.
The materials were taken from the brain tissue of fetal rat, for primary glial cell culture. At 7 to 10 days of the culture, LPS was added for the activation of nitric oxide (NO) release in glial cells. When a target compound was added, the reduction value for NO content in the cell culture medium was measured, to evaluate the anti-neuroinflammation activity of the compound. The experiment included blank control group, LPS model group, positive control group (caffeic acid phenethyl ester, CAPE), prototype control group (styryl sulfone compounds 3B, 3C, 3D, and 3G, the structures of which compounds are shown as above), and target compound group.

[3] = test system: substantia nigra GFAP; assay: Number of substantia nigra astrocytes with GFAP positive expression in MPTP Parkinson's disease model mouse (immunohistochemistry); assay type: in vivo; details: substantia nigra, MPTP Parkinson's disease model mouse, immunohistochemistry
Description: (§1) Neurotoxins can be used to establish PD animal models. Currently, 1-methyl-4-phenyl-1,2,3,6-tetrahydropyridine (MPTP) is the sole synthetic toxin which is recognized to induce PD symptoms in human and non-human primates and in mice. Using MPTP subacute modeling method, C57BL/6J male mice were intraperitoneally injected with MPTP 30 mg/kg, once a day for 5 consecutive days. The experiment animals were divided into blank control group, MPTP model group, and compound treatment group. For the […] compound treatment group, the compound was administrated by gavage for 21 consecutive days after the completion of modeling; for the MPTP model group, the normal saline was administrated by gavage for 21 consecutive days after the completion of modeling; and for the blank control group, the normal saline was first intraperitoneally injected for 5 days, and then administrated by gavage for 21 days.
Neuron-glial cell network homeostasis disorder is an important factor for the selective and progressive death of substantia nigra dopaminergic neurons in PD. In the neurotoxic effect of MPTP, the excessive activations of microglial cells and astrocytes produce a variety of inflammatory cytokines and reactive oxygen species (ROS). These inflammatory factors and ROS amplify their respective toxicities and mediate malignant feedback loop, causing a cascade inflammation response and aggravating the pathological process of PD. CD11b and GFAP are the marker proteins for activations of microglial cells and astrocytes, respectively. Therefore, the effect of the target compounds on the activations of the microglial cells and astrocytes in the substantia nigra, hippocampus, and midbrain areas of MPTP-induced PD mice can be investigated, to explore the mechanism of the anti-PD effect of the target compounds by inhibiting the neuroinflammation.
Half of experiment mice in each group were taken to separate the midbrain after perfusion and fixation. The tissue was trimmed, and the substantia nigra area was taken to prepare paraffin sections. The GFAP immunohistochemical staining was performed for the statistics of the change in the number of astrocytes with GFAP positive expression. The experiment included blank control group, MPTP model group, positive control group (caffeic acid phenethyl ester, CAPE), prototype control group (styryl sulfone compounds 3B, 3C, 3D, and 3G, whose structures are shown as above), and target compound group.

[4] = test system: GCLC; assay: Midbrain GCLC expression in MPTP Parkinson's disease model mouse (western blot); assay type: in vivo; details: midbrain, MPTP Parkinson's disease model mouse, western blot
Description: as §1
Oxidative stress is an important pathogenic mechanism of PD. Dopaminergic neurons are more sensitive to oxidative stress and are more susceptible to oxidative stress damage. Glutathione (GSH) is an important antioxidant substance in the cell, and glutamate cysteine ligase (GCL) is the rate-limiting enzyme for GSH synthesis, which is composed of catalytic subunit (GCLC) and regulatory subunit (GCLM). The increase of GCLC expression can promote the synthesis of GSH and enhance the ability of tissue cells against oxidative stress. GCL, a phase II enzyme, plays an important protective role by catalyzing the conversion of free radicals into non-toxic products and increasing their water solubility to facilitate the elimination of free radicals, and maintain the redox balance in the body. It plays an important role in the process of protecting cells against oxidative stress damage. The activation of p38 protein phosphorylation has a negative regulatory effect on phase II enzymes. […] Using GCLC as an indicator, the inhibitory effect of the target compounds on MPTP-induced oxidative stress damage in PD mice can be investigated.
GCLC is expressed in astrocytes, microglial cells, and neurons. The total proteins of the midbrain tissue of mice in each experiment group were extracted, to determine the expression of phase II enzyme GCLC in the midbrain of mice by western blot using GAPDH as the internal reference. The experiment included blank control group, MPTP model group, positive control group (caffeic acid phenethyl ester, CAPE), prototype control group (styryl sulfone compounds 3B, 3C, 3D), and 3G, whose structures are shown as above), and target compound group.

[5] = acetylcholinesterase, modified Ellman method, read-out: IC50

Chain of acetylcholinesterase (AchE) (P22303 32-614, species assumed): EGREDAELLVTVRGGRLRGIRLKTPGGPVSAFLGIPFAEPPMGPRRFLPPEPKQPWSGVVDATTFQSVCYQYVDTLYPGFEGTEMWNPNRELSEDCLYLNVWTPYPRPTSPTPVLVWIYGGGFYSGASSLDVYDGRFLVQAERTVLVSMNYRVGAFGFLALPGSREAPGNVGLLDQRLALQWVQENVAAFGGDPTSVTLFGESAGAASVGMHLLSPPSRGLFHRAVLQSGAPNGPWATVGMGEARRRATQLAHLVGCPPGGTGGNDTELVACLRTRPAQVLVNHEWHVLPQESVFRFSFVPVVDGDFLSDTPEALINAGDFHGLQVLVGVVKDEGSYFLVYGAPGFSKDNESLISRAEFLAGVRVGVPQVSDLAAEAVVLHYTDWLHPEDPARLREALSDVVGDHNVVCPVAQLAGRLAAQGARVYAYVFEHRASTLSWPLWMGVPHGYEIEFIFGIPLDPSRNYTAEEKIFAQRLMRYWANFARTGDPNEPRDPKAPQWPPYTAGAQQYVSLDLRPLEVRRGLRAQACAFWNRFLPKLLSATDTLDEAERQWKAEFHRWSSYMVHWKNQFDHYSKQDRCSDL

SMILES	IC50 [1, 5] [µM]	inhibition at 5 µM ([2]; 5 μM) [%]	inhibition at 10 µM ([2]; 10 μM) [%]	inhibition at 20 µM ([2]; 20 μM) [%]	Positive cell number (astrocytes with GFAP positive expression) [3]	Expression (GCLC/GAPDH) [4]	inhibition at 2 µM ([2]; 2 μM) [%]	IC50 [1] [µM]	inhibition at 5 µM [2] [%]	inhibition at 10 µM [2] [%]	inhibition at 20 µM [2] [%]
CC[Si](CC)(Oc1ccc(C(Cl)S(=O)(=O)/C=C/c2ccc(OC(=O)N3CC(C)OC(C)C3)c(OC(=O)c3cccc(Cl)c3OC)c2)cc1)c1ccccc1 (stereo not drawn) [Compound R1-5, (E)-4-{2-[4-(diethylphenylsiloxy)phenylchloromesyl]ethenyl}-2-(3-chloro-2-methoxybenzoyloxy)phenyl-2,6-dimethylmorpholine-4-carboxylate]	27.5 ± 3.49	23.8 ± 4.32	48.5 ± 3.68	73.6 ± 3.92	90 ± 6	1.02 ± 0.09	–	–	–	–	–
C=CCOc1ccc(C/C=C/S(=O)(=O)/C=C/c2ccc(OC(C)=O)c(OC(=O)N(CC=C)CC=C)c2)cc1 [Compound K1-4, 4-{(E)-2-[(E)-3-(4-allyloxyphenyl)prop-1-en-1-yl]sulfonylethenyl}-2-(N,N-diallylcarbamoyloxy)phenyl acetate]	16.9 ± 1.22	53.5 ± 5.52	77.4 ± 5.09	–	112 ± 4	1.10 ± 0.07	30.2 ± 4.01	–	–	–	–
CC(Br)C(Br)COc1cc(/C=C/S(=O)(=O)CCc2ccc(OCC(F)(F)F)cc2)ccc1OC(=O)Nc1ccsc1 (stereo not drawn) [Compound K1-3, (E)-2-(2,3-dibromobutoxy)-4-{2-[4-(2,2,2-trifluoroethoxy)phenylethylsulfonyl]ethenyl}phenyl-N-(thien-3-yl)carbamate]	22.3 ± 3.17	33.3 ± 6.71	54.2 ± 4.06	81.4 ± 4.29	86 ± 5	1.13 ± 0.08	–	–	–	–	–
O=S(=O)(/C=C/c1ccc(O)c(O)c1)CCCc1ccccc1 [Compound 3C, (E)-4-{2-[(3-phenylpropyl)sulfonyl]ethenyl}benzene-1,2-diol, reference compound]	> 100	9.24 ± 4.88	24.6 ± 3.09	45.8 ± 5.25	121 ± 13	0.34 ± 0.05	–	–	–	–	–
CNC(=O)Oc1ccc(/C=C/S(=O)(=O)CC(Cl)c2ccc(Cl)c([N+](=O)[O-])c2)cc1O (stereo not drawn) [Compound E2-2, (E)-4-{2-[2-chloro-2-(4-chloro-3-nitrophenyl)ethylsulfonyl]ethenyl}-2-hydroxyphenyl-N-methylcarbamate]	–	–	–	–	102 ± 5	1.48 ± 0.11	–	51.3 ± 3.94	20.3 ± 4.73	36.8 ± 6.11	68.9 ± 3.75
